In PubChem BioAssay (NCI):
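Values below derive from 48-hour exposures of cells grown in 96-well plates, with endpoints linearly interpolated between the two concentrations bracketing the appropriate inhibition level. GI50: concentration for 50% inhibition of growth. TGI denotes the concentration required for complete inhibition of growth.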

What was measured:
Experiment in all cases: DTP human tumour cell line panel, 48 h
IGROV1 ovarian = system: IGROV1 ovarian
SK-OV-3 ovarian = system: SK-OV-3 ovarian
EKVX NSCLC = system: EKVX NSCLC
KM12 colon = system: KM12 colon
NCI-H522 lung = system: NCI-H522 lung
HCT-116 colon = system: HCT-116 colon
SF-295 CNS = system: SF-295 CNS
A549 NSCLC = system: A549 NSCLC
SNB-19 CNS = system: SNB-19 CNS
COLO 205 colon = system: COLO 205 colon

Row | Compound | TGI (IGROV1 ovarian) [µM] | TGI (SK-OV-3 ovarian) [µM] | TGI (EKVX NSCLC) [µM] | TGI (KM12 colon) [µM] | TGI (NCI-H522 lung) [µM] | TGI (HCT-116 colon) [µM] | TGI (SF-295 CNS) [µM] | TGI (A549 NSCLC) [µM] | TGI (SNB-19 CNS) [µM] | TGI (COLO 205 colon) [µM] | GI50 (IGROV1 ovarian) [µM] | GI50 (SK-OV-3 ovarian) [µM] | GI50 (EKVX NSCLC) [µM] | GI50 (SNB-19 CNS) [µM] | GI50 (HCT-116 colon) [µM] | GI50 (SF-295 CNS) [µM] | GI50 (A549 NSCLC) [µM] | GI50 (KM12 colon) [µM] | GI50 (NCI-H522 lung) [µM] | GI50 (COLO 205 colon) [µM]
1 | COC1CC(OC)C(O)C(CO)O1 (stereo not drawn) | > 100 | > 100 | > 100 | > 100 | > 100 | > 100 | > 100 | > 100 | – | – | – | – | – | – | – | – | – | – | – | –
2 | O=C(C=Nc1ccccc1C(=O)[O-])c1cccs1.O=C(C=Nc1ccccc1C(=O)[O-])c1cccs1.[Zn+2] | 76 | 37.9 | – | > 100 | 47.9 | > 100 | 42.1 | > 100 | > 100 | > 100 | – | – | – | – | – | – | – | – | – | –
3 | Cc1ccc2c(c1)C=CC(C#N)N2C(=O)Oc1ccccc1 (stereo not drawn) | > 100 | – | 43 | 33.2 | 41 | > 100 | – | > 100 | > 100 | 70.1 | – | – | – | – | – | – | – | – | – | –
4 | COc1ccc(C2C3=C(COC3=O)Oc3cc4c(cc32)OCO4)cc1 (stereo not drawn) | > 100 | > 100 | > 100 | – | – | > 100 | 69.6 | > 100 | > 100 | 63.6 | – | – | – | – | – | – | – | – | – | –
5 | COC1=C(OC)[C@]2(OC)c3c(O)c(OC)c4c(c3O[C@@]23O[C@@H](c2ccccc2)CC=C3C1=O)[C@@H](O)C[C@H](c1ccccc1)O4 | 2.44 | 3.45 | 3.08 | – | – | 0.38 | 3.57 | 4.39 | 9.69 | – | 0.932 | 1.76 | 1.69 | 2.11 | 0.183 | 1.78 | 2.01 | – | – | –
6 | O=C(O)[C@@H](NS(=O)(=O)c1ccc([N+](=O)[O-])cc1)c1ccccc1 | > 100 | > 100 | > 100 | > 100 | > 100 | – | > 100 | > 100 | > 100 | > 100 | – | – | – | – | – | – | – | – | – | –
7 | c1ccc2c(CNCCCCCCCCCCCCNCc3cccc4ccccc34)cccc2c1 | 3.39 | 26.5 | 9.59 | 2.99 | 3.35 | 2.95 | 58.2 | 3.37 | – | > 100 | – | – | – | – | – | – | – | – | – | –
8 | CCOC(=O)C(C(=O)OCC)=c1sc(=C(C(=O)OCC)C(=O)OCC)s1 | > 100 | > 100 | > 100 | > 100 | > 100 | – | > 100 | > 100 | – | > 100 | – | – | – | – | – | – | – | – | – | –
9 | COC(=O)Cc1cc(=O)n2c([nH]c3ccccc32)c1C#N | > 100 | > 100 | > 100 | > 100 | – | > 100 | > 100 | > 100 | > 100 | > 100 | – | – | – | – | – | – | – | – | – | –
10 | COC(=O)[C@@]12C=CC(=O)[C@H]3C[C@@H](C(C(C)C)C1)[C@]32OC (stereo partly drawn) | > 100 | > 100 | > 100 | > 100 | – | > 100 | > 100 | > 100 | > 100 | > 100 | – | – | – | – | – | – | – | – | – | –
11 | Cc1ccc(C2=NN(c3ccc(S(N)(=O)=O)cc3)C(c3cn(-c4ccccc4)nc3-c3ccccc3)C2)cc1 (stereo not drawn) | > 100 | > 100 | – | > 100 | > 100 | 42 | > 100 | > 100 | > 100 | > 100 | 28.3 | > 100 | – | > 100 | 3.07 | 73.3 | 6.75 | 4.27 | 25.1 | 15.1
12 | O=C(O)c1ccccc1Nc1ccc2nnc(-c3ccncc3)n2n1 | 22.9 | > 100 | – | 23.9 | 22.8 | 21 | 40.1 | 62 | 40.8 | 30.8 | 5.29 | 22 | – | 14.2 | 4.09 | 13.3 | 13.3 | 7.34 | 10.4 | 13
13 | Cc1ccc(NC(=O)c2cc3ccccc3cc2O)c(C)c1.Cc1ccc(NC(=O)c2cc3ccccc3cc2[O-])c(C)c1.[Ni+2] | – | 11.6 | 8.99 | 15.9 | 10.5 | 11.4 | 14.3 | 15.6 | 20.2 | 24.6 | – | 2.9 | 2.57 | 3.72 | 2.79 | 3.89 | 3.44 | 3.41 | 3.08 | 6.65
14 | Nc1ccccc1C#Cc1ccccc1C#Cc1cnccn1 | – | 55 | 27.7 | 23.9 | 30.2 | 36.4 | 24 | > 100 | 40.5 | – | – | 22.2 | 14.1 | 20.1 | 17 | 11.8 | 44.3 | 11 | 9.05 | –
15 | O=S(=O)(Nc1ccccn1)c1ccc(N=Nc2ccc(O)c3ncccc23)cc1 | 16.5 | 6.59 | – | 15 | 2.14 | 22.6 | 4.86 | 14 | > 53.3 | 26.2 | 1.35 | 1.7 | – | 0.771 | 0.888 | 2.14 | 1.65 | 1.17 | 0.418 | 7.62
16 | COc1ccc2nc(-c3cc4c([nH]c5ccccc54)c(-c4ccc(F)c(F)c4)n3)[nH]c2c1 | 34.7 | 31.4 | – | 13 | 33.8 | 4.11 | – | 17.6 | > 100 | 4.66 | 4.62 | 17.1 | – | 8.57 | 2.05 | – | 4.05 | 2.93 | 10 | 1.88
17 | Nc1c2ccccc2nc2ccccc12 (tested in a mixture with another compound) | 7.89 | 10.5 | 7.65 | 6.77 | 2.73 | 8.48 | 10.5 | – | 15.7 | 2.08 | 2.72 | 2.39 | 2.01 | 2.64 | 0.849 | 2.1 | – | 2.22 | 1.17 | 0.753
